Assay results: US20230346773A1, “USE OF PCSK9 INHIBITOR IN PREPARATION OF PRODUCT FOR TREATING MULTIPLE DISEASES” (priority 2020, published 2023)
Marks after values point to notes of the source that are not given here.

What was measured:
[1] = system: androgenetic alopecia (SA) rat model; experiment: Androgenetic alopecia (SA) rat model induced by testosterone propionate; assay type: in vivo, Wistar rats
Method: SPF grade Wistar rats were selected and randomly divided into compound group 1 (skin applied with 5% R-IMPP solution), compound group 2 (skin applied with 5% PF 06446846 solution), and compound group 3 (skin applied with 5% SBC-115076 solution), compound group 4 (skin applied with 5% SBC-110736 solution), monoclonal antibody group 1 (subcutaneous injection of PCSK9 monoclonal antibody ab84041, 5 mg/kg·d), monoclonal antibody group 2 (subcutaneous injection of Evolocumab, 5 mg/kg·d), monoclonal antibody group 3 (subcutaneous injection of Alirocumab, 5 mg/kg·d), PCSK9 RNAi inhibitor group-1 (skin applied with 5% PCSK9 small interfering RNA-1 solution), PCSK9 RNAi inhibitor group-2 (skin applied with 5% PCSK9 small interfering RNA-2 solution), PCSK9 RNAi inhibitor group-3 (skin applied with 5% PCSK9 small interfering RNA-3 solution), and polypeptide group (subcutaneous injection of Abcam company ab32727, 3 mg/kg·d), positive control group (skin smeared with 5% minoxidil tincture), negative control group (smeared with 75% ethanol), model control group (smeared with 75% ethanol), 10 rats in each group, half male and half female.
Before the experiment, each rat selected an area of 4 cm×5 cm on the back to remove the hair as the observation area. Except for the negative control group, the rats were subcutaneously injected with testosterone propionate injection [[…]] at the back of the neck, once a day for 60 consecutive days to establish the SA model. […] At the same time, the rats in the corresponding drug group were smeared or subcutaneously injected on the skin of the observation area of the rats in the drug group, smeared 1 ml/(per time), twice a day, with an interval of 8 hours, and administered by subcutaneous injection, once a day. The negative control group and the model control group were smeared with excipient (75% ethanol solution), 1 mL one rat per time, twice a day, for 60 consecutive days.
10 hairs were extracted from the observation area on the back of each rat every 15 days after administration, and the hair length was measured with a vernier caliper. After 60 days of administration, the skin of the experimental observation area was taken for routine tissue dehydration, paraffin embedding, HE staining, and light microscopy to observe the histopathological changes of the rat skin hair follicles and sebaceous glands. Semi-quantitative analysis was carried out in each group. The grading standards are as follows: normal skin dermal tissue cells, subcutaneous hair follicles, and sebaceous glands were marked as “one”; no hyperplasia in the dermis, limited lesions of hair follicles and sebaceous glands, and no subcutaneous inflammation, marked as “±”; no obvious hyperplasia found in the dermis, obviously cystic follicles, no obvious hyperplasia found in the sebaceous glands, and no inflammation is recorded as “+”; segmental hyperplasia of skin and dermis was not obvious, a small number of hair follicles had cystic degeneration, and sebaceous glands had mild hyperplasia and hypertrophy. No obvious inflammation under the skin was recorded as “++”; the skin and dermis tissue cells had segmental hyperplasia of different degrees, some follicles degenerated, the size of the hair follicles was uneven, and there were no cells in the periphery. There was hyperplasia of sebaceous glands, and there were few nuclei in the hyperplasia glands. Individual rats had mild inflammatory hyperplasia under the skin, which was marked as “+++”.

[2] = system: hair follicles / hair growth in depilated C57BL/6 mice; experiment: Hair growth in C57BL/6 mice after rosin/paraffin depilation; assay type: in vivo
Method: SPF grade C57BL/6 mice were selected and numbered according to their weight. They were randomly divided into compound group 1 (skin applied with 2% R-IMPP solution), compound group 2 (skin applied with 2% PF 06446846 solution), and compound group 3 (skin applied with 2% SBC-115076 solution), compound group 4 (skin applied with 2% SBC-110736 solution), monoclonal antibody group 1 (PCSK9subcutaneous injection monoclonal antibody ab81041, 5 mg/kg·d), monoclonal antibody group 2 (Subcutaneous injection of Evolocumab, 5 mg/kg·d), monoclonal antibody group 3 (subcutaneous injection of Alirocumab, 5 mg/kg·d), PCSK9 RNA interference group-1 (skin applied with 2% PCSK9 small interfering RNA-1 solution), PCSK9 RNA interference Group-2 (skin applied with 2% PCSK9 small interfering RNA-2 solution), PCSK9 RNA interference group-3 (skin applied with 2% PCSK9 small interfering RNA-3 solution), polypeptide group (subcutaneous injection of Abcam company ab32727, 3 mg/kg·d), positive control group (skin applied with 2% minoxidil solution), negative control group (skin applied with 60% ethanol), and model control group (skin applied with 60% ethanol), 10 mice in each group, half male and half female. After the mice were anesthetized with ether, they were coated on the back with a mixture of rosin and paraffin (1:1) after hot melting, and then peeled off after it solidified and hardened. The back of the mouse was cleaned to be hairless and without injuries. The depilation area was about 3 cm×4 cm. From the 2nd day after depilation, the corresponding drugs were applied to the hair removal area, twice a day, 0.5 mL per animal each time, and subcutaneously injected once a week.
From the second day after application, observe the daily color change of the skin on the back of the mice to determine the growth state of the hair follicles and visually observe the hair growth in the depilation area, and score the new hair growth in the depilation area once a day. Five mice in each group were reserved for 40 days of visual observation, and the growth of back hair was recorded.
On the 17th day, five mice in each group were sacrificed by cervical dislocation. The samples were taken from the same part of the back parallel to the spine, fixed with 10% formaldehyde, dehydrated, embedded in paraffin, sectioned, stained with HE, and sealed with neutral gum. Then the histology of hair follicles was observed under light microscope, and morphological staging of hair follicles was performed. According to the international hair cycle scoring method, the hair follicles were scored as follows: 100 points for growth stage VI, 200 points for early regression, 300 points for middle regression, and 400 points for late regression. 50 hair follicles were randomly selected from each mouse, the cycle of the hair follicles in each group was determined, and the average hair cycle score and the percentage of hair follicles in the growth phase VI, early regression, middle regression, and late regression were calculated.

[3] = hair removal area on the back of mice, after hair removal

In the case of `Nc1cc(N2CCCCC2)nc(N)[n+]1[O-]` [Positive control group, minoxidil], the “Skin hair follicles and sebaceous glands: number of rats graded ++” value ([1]; 10 rats, after 60 days, few follicles with cystic degeneration, sebaceous glands mild hyperplasia and hypertrophy) is reported as 2, the “Skin hair follicles and sebaceous glands: number of rats graded ±” value ([1]; 10 rats, after 60 days, no hyperplasia in the dermis, limited lesions of hair follicles and sebaceous glands, no subcutaneous inflammation) is reported as 3 and the “Skin hair follicles and sebaceous glands: number of rats graded +” value ([1]; 10 rats, after 60 days, no obvious hyperplasia in dermis, obviously cystic follicles, no inflammation) is reported as 5. For the same compound, the “Skin hair follicles and sebaceous glands: number of rats graded −” value ([1]; 10 rats, after 60 days, normal skin dermal tissue cells, subcutaneous hair follicles and sebaceous glands) was 0, the “Skin hair follicles and sebaceous glands: number of rats graded +++” value ([1]; 10 rats, after 60 days, segmental hyperplasia, degenerated follicles, hyperplasia of sebaceous glands, mild inflammatory hyperplasia) was 0 and the “15 d hair length” value ([1]; rats, 15 days after administration) was 7.9* mm. The “30 d hair length” value ([1]; rats, 30 days after administration) was 8.4* mm, the “45 d hair length” value ([1]; rats, 45 days after administration) was 12.8* mm and the “60 d hair length” value ([1]; rats, 60 days after administration) was 14.9* mm. The “percentage of hair follicles in the growth stage VI” value ([2]; 17th day after hair plucking) was 42%, the “average hair cycle score” value ([2]; 17th day after hair plucking, 100 points growth stage VI, 200 early, 300 middle, 400 late regression) was 185 and the “Time from hair growth to the same length as the hair in the non-experimental area” value ([2]; back hair removal area of mice) was 15.77 days. The “Time to grow new hair” value ([2]; back hair removal area of mice) was 7.85 days, the “Time to match the length of hair in the non-experimental area” value ([2]; back hair removal area of mice) was 23.62 days and the Black skin duration ([2]; hair removal area on the back of mice) was 12.80 days. For the same compound, the Skin black-turning time [2, 3] was 6.29* days and the Skin grayish-black-turning time [2, 3] was 19.09* days.
